Assay results reported in US20240109917A1 (ACTELION PHARMACEUTICALS LTD, priority 2020, published 2024).
Where two headings read alike, the source gives them in different places.

What was measured:
[1] = target: His6-TEV-PDGFRβ (557-1016) (Homo sapiens (Human), UniProt P09619); experiment: PDGFRβ HTRF Assay; format: biochemical; details: read-out: PDGFR HTRF IC50
In short: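 Human PDGFRβ (557-1016) pre-incubated with compound for 30 min at RT in pH 7.5 HEPES/MgCl2/EGTA/Brij-35/DTT buffer. Reaction started with ATP and TK-biotin peptide, run 3 h at RT, then quenched with EDTA-containing Eu-cryptate antibody/streptavidin-XL665. HTRF 665/620 nm ratio read after 60 min; percent inhibition relative to DMSO and 10 μM imatinib controls.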

PDGFRβ = PDGFRβ (Rattus norvegicus (Rat), UniProt Q05030); experiment: PDGFRβ Cellular Assay (PDGFRb P-Y751 HTRF in A10 cells stimulated with PDGF-BB); format: cell-based
PDGFRβ, sequence (Q05030 32-1097): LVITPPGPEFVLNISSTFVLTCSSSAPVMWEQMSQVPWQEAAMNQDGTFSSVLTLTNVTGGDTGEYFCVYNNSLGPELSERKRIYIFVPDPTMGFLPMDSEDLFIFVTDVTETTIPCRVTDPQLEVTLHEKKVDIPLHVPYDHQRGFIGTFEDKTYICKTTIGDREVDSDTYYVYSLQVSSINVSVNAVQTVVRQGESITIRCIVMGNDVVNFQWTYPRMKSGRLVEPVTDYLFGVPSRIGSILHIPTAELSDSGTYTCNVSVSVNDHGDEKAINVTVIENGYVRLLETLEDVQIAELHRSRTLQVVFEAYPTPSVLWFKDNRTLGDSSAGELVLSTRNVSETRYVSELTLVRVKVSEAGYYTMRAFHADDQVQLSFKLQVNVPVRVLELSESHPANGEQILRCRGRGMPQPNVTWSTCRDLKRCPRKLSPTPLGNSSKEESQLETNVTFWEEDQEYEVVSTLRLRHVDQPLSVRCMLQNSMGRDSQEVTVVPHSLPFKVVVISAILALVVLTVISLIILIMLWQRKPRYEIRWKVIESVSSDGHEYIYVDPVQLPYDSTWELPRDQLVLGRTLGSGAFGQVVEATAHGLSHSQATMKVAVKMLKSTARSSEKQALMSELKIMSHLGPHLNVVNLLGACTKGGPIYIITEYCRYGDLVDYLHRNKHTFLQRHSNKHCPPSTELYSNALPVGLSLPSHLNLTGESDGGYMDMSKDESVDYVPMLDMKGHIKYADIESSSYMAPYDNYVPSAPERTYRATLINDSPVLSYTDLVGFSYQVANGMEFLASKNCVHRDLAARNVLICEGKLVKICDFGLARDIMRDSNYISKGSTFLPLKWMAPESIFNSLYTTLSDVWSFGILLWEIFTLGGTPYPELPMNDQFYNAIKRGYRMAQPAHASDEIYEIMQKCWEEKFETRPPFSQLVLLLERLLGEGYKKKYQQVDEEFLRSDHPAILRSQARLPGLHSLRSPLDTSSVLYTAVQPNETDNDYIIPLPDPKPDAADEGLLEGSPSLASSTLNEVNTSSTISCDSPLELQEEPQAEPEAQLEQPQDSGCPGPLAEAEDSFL
In short: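 Rat A10 cells, plated overnight, were treated with compound for 3 hours, then stimulated with PDGF-BB (working stock 100 ng/mL in 10% FBS medium). After lysis, PDGFRβ P-Y751 was detected by HTRF.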

His6-TEV-PDGFRβ (557-1016), sequence (P09619 557-1016): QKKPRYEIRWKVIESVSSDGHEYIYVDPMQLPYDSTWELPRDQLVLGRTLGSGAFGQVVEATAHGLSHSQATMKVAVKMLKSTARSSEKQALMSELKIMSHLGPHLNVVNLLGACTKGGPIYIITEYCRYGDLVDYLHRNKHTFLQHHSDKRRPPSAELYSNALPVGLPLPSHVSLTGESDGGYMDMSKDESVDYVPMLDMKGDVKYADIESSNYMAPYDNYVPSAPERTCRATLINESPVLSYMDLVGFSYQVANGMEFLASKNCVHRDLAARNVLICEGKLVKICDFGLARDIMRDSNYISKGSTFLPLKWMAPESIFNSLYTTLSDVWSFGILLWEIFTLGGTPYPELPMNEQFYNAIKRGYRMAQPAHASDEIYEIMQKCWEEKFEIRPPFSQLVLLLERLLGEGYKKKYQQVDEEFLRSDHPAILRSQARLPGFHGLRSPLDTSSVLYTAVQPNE

| Compound | IC50 [1] [nM] | IC50 (PDGFRβ; read-out: PDGFR Cellular IC50) [nM] | IC50 (PDGFRβ; PDGFR Cellular IC50) [nM] |
| --- | --- | --- | --- |
| Cc1ncc(NC(=O)CN(C)C2CCOCC2)cc1NC(=O)c1cnn2cc(-c3cnn(CC#N)c3)sc12 [Example 299, 2-(1-(cyanomethyl)-1H-pyrazol-4-yl)-N-(2-methyl-5-(2-(methyl(tetrahydro-2H-pyran-4-yl)amino)acetamido)pyridin-3-yl)pyrazolo[5,1-b]thiazole-7-carboxamide] | 0.5 | 102 | – |
| COc1ncccc1-c1cn2ncc(C(=O)Nc3cc(NC(=O)CN4CCO[C@H](C)C4)cnc3C)c2s1 [Example 318, (R)-2-(2-methoxypyridin-3-yl)-N-(2-methyl-5-(2-(2-methylmorpholino)acetamido)pyridin-3-yl)pyrazolo[5,1-b]thiazole-7-carboxamide] | 0.3 | – | 3.8 |
| Cc1ncc(NC(=O)C[C@@H]2CCCN2C(C)C)cc1NC(=O)c1cnn2cc(-c3cccnc3O)sc12 [Example 322, (S)-2-(2-hydroxypyridin-3-yl)-N-(5-(2-(1-isopropylpyrrolidin-2-yl)acetamido)-2-methylpyridin-3-yl)pyrazolo[5,1-b]thiazole-7-carboxamide] | 0.7 | 122 | – |
| COc1ncccc1-c1cn2ncc(C(=O)Nc3cc(NC(=O)CN4CCCC4)cnc3C)c2s1 [Example 313, 2-(2-methoxypyridin-3-yl)-N-(2-methyl-5-(2-(pyrrolidin-1-yl)acetamido)pyridin-3-yl)pyrazolo[5,1-b]thiazole-7-carboxamide] | 0.2 | 2.8 | – |
| Cc1ncc(NC(=O)CN(C)C2CCOCC2)cc1NC(=O)c1cnn2cc(-c3cnn(C(C)C#N)c3)sc12 (centres unmarked) [Example 297, 2-(1-(1-cyanoethyl)-1H-pyrazol-4-yl)-N-(2-methyl-5-(2-(methyl(tetrahydro-2H-pyran-4-yl)amino)acetamido)pyridin-3-yl)pyrazolo[5,1-b]thiazole-7-carboxamide] | 0.7 | 98 | – |
| Cc1ncc(NC(=O)CN2CC(C)(C)C2)cc1NC(=O)c1cnn2cc(-c3ccc(CO)o3)sc12 [Example 292, N-(5-(2-(3,3-dimethylazetidin-1-yl)acetamido)-2-methylpyridin-3-yl)-2-(5-(hydroxymethyl)furan-2-yl)pyrazolo[5,1-b]thiazole-7-carboxamide] | 0.3 | 4.2 | – |
| COc1ncccc1-c1cn2ncc(C(=O)Nc3cc(NC(=O)C[C@H]4CCCN4C(C)C)cnc3C)c2s1 [Example 309, (R)—N-(5-(2-(1-isopropylpyrrolidin-2-yl)acetamido)-2-methylpyridin-3-yl)-2-(2-methoxypyridin-3-yl)pyrazolo[5,1-b]thiazole-7-carboxamide] | 0.2 | 4.2 | – |
| Cc1ncc(NC(=O)CN2CC(C)(C)C2)cc1NC(=O)c1cnn2cc(-c3cnn(C4COC4)c3)sc12 [Example 264, N-(5-(2-(3,3-dimethylazetidin-1-yl)acetamido)-2-methylpyridin-3-yl)-2-(1-(oxetan-3-yl)-1H-pyrazol-4-yl)pyrazolo[5,1-b]thiazole-7-carboxamide] | 0.4 | 7.6 | – |
| Cc1ncc(NC(=O)OC[C@@H]2CCCN2C)cc1NC(=O)c1cnn2cc(-c3cc[nH]c3)sc12 [Example 258, (S)-(1-methylpyrrolidin-2-yl)methyl (5-(2-(1H-pyrrol-3-yl)pyrazolo[5,1-b]thiazole-7-carboxamido)-6-methylpyridin-3-yl)carbamate] | 0.4 | 48.7 | – |
| Cc1ncc(NC(=O)CN2CC(C)(C)C2)cc1NC(=O)c1cnn2cc(-c3cnn(CC(F)(F)F)c3)sc12 [Example 268, N-(5-(2-(3,3-dimethylazetidin-1-yl)acetamido)-2-methylpyridin-3-yl)-2-(1-(2,2,2-trifluoroethyl)-1H-pyrazol-4-yl)pyrazolo[5,1-b]thiazole-7-carboxamide] | 0.6 | 11.6 | – |
| Cc1ncc(NC(=O)[C@@H]2CCCN3CCCC[C@H]23)cc1NC(=O)c1cnn2cc(-c3cnn(C)c3)sc12 [Example 308, 2-(1-methyl-1H-pyrazol-4-yl)-N-(2-methyl-5-((1R,9aR)-octahydro-2H-quinolizine-1-carboxamido)pyridin-3-yl)pyrazolo[5,1-b]thiazole-7-carboxamide] | 20.9 | 311 | – |
| Cc1ncc(NC(=O)CN2CCC3(CCOC3)C2)cc1NC(=O)c1cnn2cc(-c3cnn(C)c3)sc12 (centres unmarked) [Example 19, N-(5-(2-(2-oxa-7-azaspiro[4.4]nonan-7-yl)acetamido)-2-methylpyridin-3-yl)-2-(1-methyl-1H-pyrazol-4-yl)pyrazolo[5,1-b]thiazole-7-carboxamide] | 0.7 | 12.9 | – |
| Cc1ncc(NC(=O)CN2CC(C)(C)C2)cc1NC(=O)c1cnn2cc(-c3cnn(CC4COC4)c3)sc12 [Example 263, N-(5-(2-(3,3-dimethylazetidin-1-yl)acetamido)-2-methylpyridin-3-yl)-2-(1-(oxetan-3-ylmethyl)-1H-pyrazol-4-yl)pyrazolo[5,1-b]thiazole-7-carboxamide] | 0.6 | 13.9 | – |
| Cc1ncc(NC(=O)CN2CC(C)(C)C2)cc1NC(=O)c1cnn2cc(-c3ccoc3)sc12 [Example 283, N-(5-(2-(3,3-dimethylazetidin-1-yl)acetamido)-2-methylpyridin-3-yl)-2-(furan-3-yl)pyrazolo[5,1-b]thiazole-7-carboxamide] | 0.1 | 1.5 | – |
| Cc1ncc(NC(=O)C[C@@H]2CCCCN2C(C)C)cc1NC(=O)c1cnn2cc(-c3cnn(C)c3)sc12 [Example 305, (S)—N-(5-(2-(1-isopropylpiperidin-2-yl)acetamido)-2-methylpyridin-3-yl)-2-(1-methyl-1H-pyrazol-4-yl)pyrazolo[5,1-b]thiazole-7-carboxamide] | 2.1 | 308 | – |
| Cc1ncc(NC(=O)C(C)N2CCCCCC2)cc1NC(=O)c1cnn2cc(-c3cnn(C)c3)sc12 (centres unmarked) [Example 306, N-(5-(2-(azepan-1-yl)propanamido)-2-methylpyridin-3-yl)-2-(1-methyl-1H-pyrazol-4-yl)pyrazolo[5,1-b]thiazole-7-carboxamide] | 0.5 | 4.8 | – |
| Cc1ncc(NC(=O)CN(C)C2CCOCC2)cc1NC(=O)c1cnn2cc(-c3cnn(C(F)F)c3)sc12 [Example 295, 2-(1-(difluoromethyl)-1H-pyrazol-4-yl)-N-(2-methyl-5-(2-(methyl(tetrahydro-2H-pyran-4-yl)amino)acetamido)pyridin-3-yl)pyrazolo[5,1-b]thiazole-7-carboxamide] | 0.7 | 21.3 | – |
| Cc1ncc(NC(=O)CN2CC(C)(C)C2)cc1NC(=O)c1cnn2cc(-c3c[nH]c4ccccc34)sc12 [Example 287, N-(5-(2-(3,3-dimethylazetidin-1-yl)acetamido)-2-methylpyridin-3-yl)-2-(1H-indol-3-yl)pyrazolo[5,1-b]thiazole-7-carboxamide] | 0.1 | 1.8 | – |
| CC[C@H]1CN(CC(=O)Nc2cnc(C)c(NC(=O)c3cnn4cc(-c5cccnc5OC)sc34)c2)CCO1 [Example 311, (S)—N-(5-(2-(2-ethylmorpholino)acetamido)-2-methylpyridin-3-yl)-2-(2-methoxypyridin-3-yl)pyrazolo[5,1-b]thiazole-7-carboxamide] | 0.2 | 2.4 | – |
| Cc1ncc(NC(=O)CN2CCCC3(COC3)C2)cc1NC(=O)c1cnn2cc(-c3cnn(C)c3)sc12 [Example 24, N-(5-(2-(2-oxa-6-azaspiro[3.5]nonan-6-yl)acetamido)-2-methylpyridin-3-yl)-2-(1-methyl-1H-pyrazol-4-yl)pyrazolo[5,1-b]thiazole-7-carboxamide] | 0.7 | 31.8 | – |
| Cc1ncc(NC(=O)CN(C)C2CCOCC2)cc1NC(=O)c1cnn2cc(-c3cnn(CS(C)(=O)=O)c3)sc12 [Example 298, N-(2-methyl-5-(2-(methyl(tetrahydro-2H-pyran-4-yl)amino)acetamido)pyridin-3-yl)-2-(1-((methylsulfonyl)methyl)-1H-pyrazol-4-yl)pyrazolo[5,1-b]thiazole-7-carboxamide] | 0.9 | – | 236 |
| Cc1ncc(NC(=O)CN2CCCCC23COC3)cc1NC(=O)c1cnn2cc(-c3cnn(C)c3)sc12 [Example 25, N-(5-(2-(2-oxa-5-azaspiro[3.5]nonan-5-yl)acetamido)-2-methylpyridin-3-yl)-2-(1-methyl-1H-pyrazol-4-yl)pyrazolo[5,1-b]thiazole-7-carboxamide] | 0.7 | 27.7 | – |
| Cc1ncc(NC(=O)CN2CC(C)(C)C2)cc1NC(=O)c1cnn2cc(-c3ccn(S(C)(=O)=O)c3)sc12 [Example 275, N-(5-(2-(3,3-dimethylazetidin-1-yl)acetamido)-2-methylpyridin-3-yl)-2-(1-(methylsulfonyl)-1H-pyrrol-3-yl)pyrazolo[5,1-b]thiazole-7-carboxamide] | 0.2 | – | 7.6 |
| CC(=O)Nc1cc(-c2cn3ncc(C(=O)Nc4cc(NC(=O)CN5CC(C)(C)C5)cnc4C)c3s2)ccn1 [Example 273, 2-(2-acetamidopyridin-4-yl)-N-(5-(2-(3,3-dimethylazetidin-1-yl)acetamido)-2-methylpyridin-3-yl)pyrazolo[5,1-b]thiazole-7-carboxamide] | 0.2 | 13.7 | – |
| Cc1ncc(NC(=O)CN2CC(C)(C)C2)cc1NC(=O)c1cnn2cc(-c3cnn(C(F)(F)F)c3)sc12 [Example 269, N-(5-(2-(3,3-dimethylazetidin-1-yl)acetamido)-2-methylpyridin-3-yl)-2-(1-(trifluoromethyl)-1H-pyrazol-4-yl)pyrazolo[5,1-b]thiazole-7-carboxamide] | 1.8 | 17.5 | – |
